The values that follow come from patent US11458138B2 (Novartis AG, priority 2017, dated 2022).

In one assay the target is LATS1 (Homo sapiens (Human), UniProt O95835). The assay is described as follows: LATS1 biochemical assay (Table 1A, Compound Examples 1-290; method in the earlier part).
Assay [1] has as its system Phospho-YAP (SER127) in HaCaT cells. The assay is described as follows: pYAP HTRF Assay (HaCaT Cells). The assay is classed as cell-based, human. Particulars: Homo sapiens, 2 hours. The gist of the method: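 Phospho-YAP (Ser127) was measured by HTRF (665 nm/620 nm ratio) in HaCaT cells. Cells were grown 48 hours at 37° C at 5500 cells/well, exposed to compound for 2 hours, and incubated with detection reagents for 20 hrs at room temperature.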

Assay [2] relates to YAP nuclear translocation in HaCaT cells. The assay is described as follows: YAP Translocation Assay (HaCaT Cells). The assay is classed as cell-based, human. Particulars: Homo sapiens, 24 hours. An outline of the steps:
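HaCaT cells (20,000/well) in DMEM + 10% FBS were plated overnight at 37° C, then exposed to compound for 24 h at 37° C. Cells were fixed with PFA, permeabilized with 0.1% Triton/1.5% BSA and imaged by high-content imaging.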

The structures appear in SMILES notation.

Chain of LATS1 (O95835 whole entry, looked up): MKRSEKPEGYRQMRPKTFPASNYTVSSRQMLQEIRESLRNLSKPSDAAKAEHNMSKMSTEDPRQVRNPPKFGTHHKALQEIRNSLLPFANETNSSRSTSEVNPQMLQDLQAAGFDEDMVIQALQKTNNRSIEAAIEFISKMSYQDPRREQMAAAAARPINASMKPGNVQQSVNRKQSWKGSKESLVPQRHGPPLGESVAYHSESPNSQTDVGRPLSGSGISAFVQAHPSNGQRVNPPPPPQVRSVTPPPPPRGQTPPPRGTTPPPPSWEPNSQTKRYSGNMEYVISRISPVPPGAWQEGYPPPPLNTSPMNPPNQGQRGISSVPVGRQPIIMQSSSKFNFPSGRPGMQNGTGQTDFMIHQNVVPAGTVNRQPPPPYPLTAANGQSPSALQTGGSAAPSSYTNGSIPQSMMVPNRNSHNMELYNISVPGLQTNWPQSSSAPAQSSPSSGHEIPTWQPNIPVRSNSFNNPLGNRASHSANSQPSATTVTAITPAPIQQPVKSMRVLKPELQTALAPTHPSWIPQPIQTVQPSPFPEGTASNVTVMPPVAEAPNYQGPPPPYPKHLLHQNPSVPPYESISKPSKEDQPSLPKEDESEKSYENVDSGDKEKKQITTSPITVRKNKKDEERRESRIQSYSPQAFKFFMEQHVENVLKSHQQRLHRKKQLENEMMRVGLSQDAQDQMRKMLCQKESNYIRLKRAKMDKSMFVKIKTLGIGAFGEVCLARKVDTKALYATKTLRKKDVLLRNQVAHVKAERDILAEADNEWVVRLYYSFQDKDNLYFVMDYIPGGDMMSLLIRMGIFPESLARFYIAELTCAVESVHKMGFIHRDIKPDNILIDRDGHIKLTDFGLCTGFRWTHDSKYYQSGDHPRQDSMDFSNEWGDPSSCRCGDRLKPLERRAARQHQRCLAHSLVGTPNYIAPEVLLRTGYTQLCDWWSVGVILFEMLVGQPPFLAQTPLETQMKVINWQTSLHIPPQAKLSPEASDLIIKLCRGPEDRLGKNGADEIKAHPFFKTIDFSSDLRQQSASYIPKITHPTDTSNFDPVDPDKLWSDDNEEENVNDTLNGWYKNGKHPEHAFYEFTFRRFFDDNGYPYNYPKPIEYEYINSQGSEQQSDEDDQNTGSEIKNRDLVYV
Chain of LATS1 (Q7L9L4 whole entry partner, looked up): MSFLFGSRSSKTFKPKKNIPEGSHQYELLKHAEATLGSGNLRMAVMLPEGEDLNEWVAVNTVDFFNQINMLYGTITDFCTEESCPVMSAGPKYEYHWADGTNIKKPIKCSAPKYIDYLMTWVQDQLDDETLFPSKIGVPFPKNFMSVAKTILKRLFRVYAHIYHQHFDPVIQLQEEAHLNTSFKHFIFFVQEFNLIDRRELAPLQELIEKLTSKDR

In general, IC50 refers to the concentration at which inhibition is half-maximal. A higher IC50 goes with a need for much substance. As a reminder, the EC50 is the concentration that produces a half-maximal response. As to `Cc1n[nH]cc1-c1nc(NC(C)(C)C(F)(F)F)c2ccncc2n1` [Example 135, 2-(3-methyl-1H-pyrazol-4-yl)-N-(1,1,1-trifluoro-2-methylpropan-2-yl)pyrido[3,4-d]pyrimidin-4-amine], the IC50 at LATS1 worked out at 2 nM; in assay [1] it was 0.488 µM. This molecule showed an EC50 in assay [2] of 0.85 µM.
With `COC(=O)C(C)(C)Nc1nc(-c2ccncc2)nc2cnccc12` [Example 32, Methyl 2-methyl-2-{[2-(pyridin-4-yl)pyrido[3,4-d]pyrimidin-4-yl]amino}propanoate], the IC50 is 47 nM against LATS1 and > 10 µM in assay [1]. In addition, the EC50 in assay [2] is > 20 µM.
For `CC(C)(CCS(C)(=O)=O)Nc1nc(-c2ccncc2)nc2cnccc12` [Example 22, N-(4-methanesulfonyl-2-methylbutan-2-yl)-2-(pyridin-4-yl)pyrido[3,4-d]pyrimidin-4-amine], in that order: 7 nM, 11.4 µM and 13 µM.
For `CC1(Nc2nc(-c3cn[nH]c3)nc3cnccc23)CC1` [Example 194, N-(1-methylcyclopropyl)-2-(1H-pyrazol-4-yl)pyrido[3,4-d]pyrimidin-4-amine], in that order: 5 nM, 11.3 µM and 4.24 µM.
For `COC1CC(Nc2nc(-c3ccncc3)nc3cnccc23)C1` (stereo not drawn) [Example 52, N-(3-methoxycyclobutyl)-2-(pyridin-4-yl)pyrido[3,4-d]pyrimidin-4-amine], in that order: 12 nM, 11.3 µM and > 20 µM.
As for `CC(CO)(CO)Nc1nc(-c2ccncc2)nc2cnccc12` [Example 23, 2-methyl-2-{[2-(pyridin-4-yl)pyrido[3,4-d]pyrimidin-4-yl]amino}propane-1,3-diol], the IC50 is 10 nM on LATS1 and 9.58 µM in assay [1]. Besides, it took 11.8 µM to reach a half-maximal effect in assay [2] (EC50).
Turning to `Cn1nccc1-c1nc(NC2(CO)CCC2)c2ccncc2n1` [Example 187, (1-{[2-(1-methyl-1H-pyrazol-5-yl)pyrido[3,4-d]pyrimidin-4-yl]amino}cyclobutyl)methanol], the IC50 at LATS1 is 16 nM; in assay [1] it was > 100 µM. Besides, the EC50 in assay [2] was > 20 µM.
Taken in the same sequence, the figures for `CC1CCCCN1CC(C)(C)Nc1nc(-c2ccncc2)nc2cnccc12` (stereo not drawn) [Example 108, N-[2-methyl-1-(2-methylpiperidin-1-yl)propan-2-yl]-2-(pyridin-4-yl)pyrido[3,4-d]pyrimidin-4-amine] were 27 nM, 11.8 µM and > 19.3 µM.
Take `CC1(Nc2nc(-c3ccncc3)nc3cncc(Cl)c23)CC1` [Example 252, 5-chloro-N-(1-methylcyclopropyl)-2-(pyridin-4-yl)pyrido[3,4-d]pyrimidin-4-amine]: the IC50 against LATS1 turned out to be 2 nM; in assay [1], 6.98 µM. In addition, the EC50 in assay [2] is > 10 µM.
Taken in the same sequence, the figures for `C[C@@H](Nc1nc(-c2ccnn2C)nc2cnccc12)c1ccccc1` [Example 170, 2-(1-methyl-1H-pyrazol-5-yl)-N-[(1R)-1-phenylethyl]pyrido[3,4-d]pyrimidin-4-amine] were 1280 nM, > 10 µM and > 20 µM.
For `CCNc1nc(-c2ccncc2)nc2cnccc12` [Example 13, N-ethyl-2-(pyridin-4-yl)pyrido[3,4-d]pyrimidin-4-amine], in that order: 4 nM, 13.5 µM and 8.51 µM.
Taken in the same sequence, the figures for `CC1(Nc2nc(-c3c(F)cncc3F)nc3cnccc23)CC1` [Example 147, 2-(3,5-difluoropyridin-4-yl)-N-(1-methylcyclopropyl)pyrido[3,4-d]pyrimidin-4-amine] were 69 nM, > 10 µM and > 20 µM.
For the molecule `CC1(Nc2nc(-c3ccncn3)nc3cnccc23)CC1` [Example 159, N-(1-methylcyclopropyl)-2-(pyrimidin-4-yl)pyrido[3,4-d]pyrimidin-4-amine], the 50% inhibitory concentration (IC50) against LATS1 was 16 nM; in assay [1], > 10 µM. The EC50 in assay [2] was > 20 µM.
Regarding `CS(=O)(=O)CCNc1nc(-c2ccncc2)nc2cnccc12` [Example 41, N-(2-methanesulfonylethyl)-2-(pyridin-4-yl)pyrido[3,4-d]pyrimidin-4-amine], the IC50 against LATS1 is 708 nM; in assay [1], > 10 µM. Besides, the 50% effective concentration (EC50) in assay [2] was > 20 µM.
Taken in the same sequence, the figures for `CC(C)(C)Nc1nc(-c2ccncc2)nc2cncc(NCCOCCO)c12` [Example 253] were 85 nM, 16.7 µM and > 20 µM.
Regarding `CC(C)(CCc1ccccc1)Nc1nc(-c2ccncc2)nc2cnccc12` [Example 20, N-(2-methyl-4-phenylbutan-2-yl)-2-(pyridin-4-yl)pyrido[3,4-d]pyrimidin-4-amine], the IC50 against LATS1 worked out at 6 nM; in assay [1], 1.77 µM. In assay [2], this molecule registered an EC50 of 5.18 µM.
For `Fc1cccc(Nc2nc(-c3ccncc3)nc3cnccc23)c1` [Example 95, N-(3-fluorophenyl)-2-(pyridin-4-yl)pyrido[3,4-d]pyrimidin-4-amine], in that order: > 1440 nM, > 10 µM and > 20 µM.
For `C#CC(C)(C)Nc1nc(-c2ccncc2)nc2cnccc12` [Example 69, N-(2-methylbut-3-yn-2-yl)-2-(pyridin-4-yl)pyrido[3,4-d]pyrimidin-4-amine], in that order: 3 nM, 4.72 µM and 11.5 µM.
Taken in the same sequence, the figures for `CC(O)C(C)(C)Nc1nc(-c2ccncc2)nc2cnccc12` (stereo not drawn) [Example 18, 3-methyl-3-{[2-(pyridin-4-yl)pyrido[3,4-d]pyrimidin-4-yl]amino}butan-2-ol] were 6 nM, 1.52 µM and 3.46 µM.
With `OCC1(Nc2nc(-c3cn[nH]c3)nc3cnccc23)CC1` [Example 192, (1-{[2-(1H-pyrazol-4-yl)pyrido[3,4-d]pyrimidin-4-yl]amino}cyclopropyl)methanol], the values for the IC50 (against LATS1; in assay [1]) were 201 nM and > 10 µM, respectively. The EC50 in assay [2] was > 20 µM.
For `CC(C)(CN1CCOCC1)Nc1cc(-c2ccncc2F)nc2cnccc12` [Example 284, 2-(3-fluoropyridin-4-yl)-N-[2-methyl-1-(morpholin-4-yl)propan-2-yl]-1,7-naphthyridin-4-amine], in that order: 30 nM, 46.5 µM and > 41.2 µM.
Taken in the same sequence, the figures for `CCCNc1nc(-n2ccc3ncccc32)nc2cnccc12` [Example 156, N-propyl-2-{1H-pyrrolo[3,2-b]pyridin-1-yl}pyrido[3,4-d]pyrimidin-4-amine] were 6 nM, > 100 µM and 90.1 µM.
Regarding `CC(O)C(C)Nc1nc(-c2ccncc2)nc2cnccc12` (stereo not drawn) [Example 24, 3-{[2-(pyridin-4-yl)pyrido[3,4-d]pyrimidin-4-yl]amino}butan-2-ol], the IC50 turned out to be 17 nM on LATS1 and 34.7 µM in assay [1]. The EC50 in assay [2] turned out to be 33.1 µM.
Take `Cn1cc(-c2nc(NC3(C)CC3)c3ccncc3n2)cn1` [Example 196, 2-(1-methyl-1H-pyrazol-4-yl)-N-(1-methylcyclopropyl)pyrido[3,4-d]pyrimidin-4-amine]: the IC50 against LATS1 was > 2500 nM; in assay [1] it was > 10 µM. Further, the EC50 in assay [2] was > 20 µM.
